Data taken from patent US11565996B2, “Compounds for use as inhibitors of alternative oxidase or cytochrome bc1 complex” (AlternOx Scientific Limited, priority 2012, dated 2023).
“And” between values parts separate entries of the source, which are not always exact repeats. Identical values can stand only once. Like-named read-outs stand apart in the source and are kept apart here.

What was measured:
cytochrome bc1 complex [1] = target: cytochrome bc1 complex (Solanum tuberosum (Potato), UniProt P29757); experiment: Respiratory activity of potato mitochondria lacking AOX (cytochrome bc1 complex), oxygen electrode; type: biochemical; conditions: 0.3 mg potato mitochondria respiring on 1 mM NADH, 25° C., 1 μM CCCP
Procedure: (§1) Following on from this work, the inventors set out to test whether or not these compounds also have any effect on the respiratory activity of cytochrome bc1 complex.
(§2) Respiratory activity was measured in a medium containing 0.3M mannitol, 10 mM KCl, 5 mM MgCl2, 1 mM potassium phosphate and 10 mM MOPS (3-(N-morpholino)propanesulfonic acid) buffer pH7.4. Either 0.9 mg of rat liver mitochondria respiring on 5 mM succinate or 0.3 mg potato mitochondria respiring on 1 mM NADH were used. Respiration was measured using a Rank oxygen electrode of 0.4 ml volume at 25° C. in the presence of 1 μM CCCP (Carbonyl cyanide […]). The results were compared with ascochlorin (a known bc1 inhibitor) and azoxystrobin (a commercial fungicide targeted at the bc1 complex).
(§3) Tables 3 and 4 summarise the concentration of inhibitor that was required to reduce the respiration of cytochrome bc1 complex (in the absence of AOX) by 50%. […] The lower the IC50 value the better, since it means that a lower amount of the compound is needed to halve the respiratory activity.

cytochrome bc1 complex [2] = target: cytochrome bc1 complex (Rattus norvegicus (Rat), UniProt P00159); experiment: Respiratory activity of rat liver mitochondria lacking AOX (cytochrome bc1 complex), oxygen electrode; type: biochemical; conditions: 0.9 mg rat liver mitochondria respiring on 5 mM succinate; 25° C.; 1 μM CCCP
Procedure: as §1, §2, §3

[3] = test system: Qo and Qi binding-sites of cytochrome bc1 complex; experiment: Titration using mitochondria in which the alternative oxidase is absent: bc1 binding sites inhibited; type: biochemical; conditions: mitochondria without AOX
From the text: as §1

other quinol oxidases = experiment: Specificity versus other quinol oxidases; type: biochemical; conditions: specific for membrane-bound and purified AOX
recombinant AOX protein = recombinant AOX protein (Trypanosoma brucei brucei, UniProt Q26710); experiment: biochemical; conditions: purified recombinant AOX protein; oxygen consumption; 1 mM NADH as substrate
Procedure: Table 1 summarises the concentration of inhibitor required to reduce the respiration of purified recombinant AOX protein by 50%. Respiration was measured as the rate of oxygen consumption in the presence of 1 mM NADH as substrate and the numbers represent the final I50 concentration of the inhibitor.

[4] = read-out: IC50 (Potato mitochondria)

Compound	IC50 (cytochrome bc1 complex [1]; IC50 (Potato mitochondria))	IC50 (cytochrome bc1 complex [2])	IC50 (cytochrome bc1 complex [1]; [4])	also measured
CC(/C=C/[C@@]1(C)[C@H](C)CCC(=O)[C@@H]1C)=C\Cc1c(O)c(Cl)c(C)c(C=O)c1O [Ascochlorin, ascochlorin]	500 nM	187 nM		
C/C(=C\Cc1c(O)c(Cl)c(C)c(C=O)c1O)CC/C=C(\C)[C@@H]1CC(=O)C(C)(C)O1 [Ascofuranone]	~30000 nM and 30000 nM			
CO/C=C(/C(=O)OC)c1ccccc1Oc1cc(Oc2ccccc2C#N)ncn1 [Azoxystrobin, azoxystrobin]		~525 nM and 525 nM	~1400 nM and 1400 nM	
CC(C)=CCC/C(C)=C/Cc1c(O)c(Cl)c(C)c(C=O)c1O [Colletochlorin B]			750 nM	cytochrome bc1 complex binding sites inhibited [3]: both the Qo and Qi binding-sites; inhibition of other quinol oxidases (other quinol oxidases): did not appear to inhibit other quinol oxidases
CCCCCCCCOC(=O)c1cc(O)c(O)c(O)c1 [Octyl Gallate]				IC50 (recombinant AOX protein): 105 nM
